ChEMBL document CHEMBL1152961, “Synthesis and biological evaluation of novel carbon-11 labeled pyridyl ethers: candidate ligands for in vivo imaging of alpha4beta2 nicotinic acetylcholine receptors (alpha4beta2-nAChRs) in the brain with positron emission tomography” (Bioorg Med Chem, 2009)
pKi: −log10 of the molar value.

Assays:
[1] = target: Neuronal acetylcholine receptor; alpha3/beta2 (Rattus norvegicus, UniProt P04757+P12390); experiment: Displacement of [3H]epibatidine from rat alpha3beta2 nicotinic receptor expressed in human HEK293 cells by liquid scintillation counting; type: cell-based
Rattus norvegicus = organism: Rattus norvegicus; experiment: Selectivity ratio of Ki for rat alpha3beta4 nicotinic receptor to Ki for rat alpha4beta2 nicotinic receptor
[2] = target: Neuronal acetylcholine receptor subunit alpha-2 (Rattus norvegicus, UniProt P12389+P12390); experiment: Displacement of [3H]epibatidine from rat alpha2beta2 nicotinic receptor expressed in human HEK293 cells by liquid scintillation counting; type: cell-based
[3] = target: T1, Neuronal acetylcholine receptor; alpha4/beta2 (Rattus norvegicus, UniProt P09483+P12390); experiment: Displacement of [3H]epibatidine from rat alpha4beta2 nicotinic receptor expressed in human HEK293 cells by liquid scintillation counting; type: cell-based
[4] = target: Neuronal acetylcholine receptor; alpha3/beta4 (Rattus norvegicus, UniProt P04757+P12392); experiment: Displacement of [3H]epibatidine from rat alpha3beta4 nicotinic receptor expressed in human HEK293 cells by liquid scintillation counting; type: cell-based
[5] = target: Neuronal acetylcholine receptor; alpha4/beta4 (Rattus norvegicus, UniProt P09483+P12392); experiment: Displacement of [3H]epibatidine from rat alpha4beta4 nicotinic receptor expressed in human HEK293 cells by liquid scintillation counting; type: cell-based
[6] = target: Neuronal acetylcholine receptor; alpha4/beta2 (Rattus norvegicus) (UniProt P09483+P12390); experiment: Ratio of compound Ki to epibatidine Ki for rat alpha4beta2 nicotinic receptor expressed in human HEK293 cells; type: cell-based
[7] = target: Neuronal acetylcholine receptor; alpha2/beta4 (Rattus norvegicus, UniProt P12389+P12392); experiment: Displacement of [3H]epibatidine from rat alpha2beta4 nicotinic receptor expressed in human HEK293 cells by liquid scintillation counting; type: cell-based
[8] = Octanol-water partition coefficient, log D at pH 7.4 by shake flask method; type: physicochemical
[9] = target: T1, Neuronal acetylcholine receptor; alpha4/beta2; experiment: Displacement of [125I]5-A-85380 from alpha4beta2 nicotinic receptor in rat brain; type: tissue-based
[10] = Ratio of drug uptake in thalamus to cerebellum of CD1 mouse at 0.07 mCi, iv after 45 mins; type: ADME, organism-based; conditions: in vivo, 0.75 h
[11] = Drug uptake in baboon brain thalamus assessed as binding potential at 31 mCi by bolus injection; type: ADME, organism-based; conditions: papio anubis, in vivo, iv
[12] = Drug uptake in baboon brain thalamus assessed as binding potential at 21 mCi by bolus injection; type: ADME, organism-based; conditions: papio anubis, in vivo, iv
[13] = Drug uptake in baboon brain thalamus assessed as binding potential at 17.5 mCi by bolus injection; type: ADME, organism-based; conditions: papio anubis, in vivo, iv

Chain of Neuronal acetylcholine receptor; alpha3/beta4 (P04757 whole entry): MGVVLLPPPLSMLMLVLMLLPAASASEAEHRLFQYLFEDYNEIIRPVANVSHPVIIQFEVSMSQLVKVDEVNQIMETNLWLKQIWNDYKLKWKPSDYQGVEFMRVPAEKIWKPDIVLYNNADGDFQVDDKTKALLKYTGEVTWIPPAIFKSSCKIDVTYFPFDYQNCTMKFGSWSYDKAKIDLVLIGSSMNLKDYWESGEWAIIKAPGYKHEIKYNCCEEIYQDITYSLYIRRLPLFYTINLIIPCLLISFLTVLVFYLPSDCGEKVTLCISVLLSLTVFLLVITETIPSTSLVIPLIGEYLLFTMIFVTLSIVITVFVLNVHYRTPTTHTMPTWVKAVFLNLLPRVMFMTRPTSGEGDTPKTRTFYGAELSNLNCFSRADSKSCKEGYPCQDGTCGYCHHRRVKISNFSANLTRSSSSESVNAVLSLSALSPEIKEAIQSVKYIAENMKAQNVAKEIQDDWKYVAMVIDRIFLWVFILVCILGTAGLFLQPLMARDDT
Chain of Neuronal acetylcholine receptor; alpha3/beta4 (P12392 whole entry): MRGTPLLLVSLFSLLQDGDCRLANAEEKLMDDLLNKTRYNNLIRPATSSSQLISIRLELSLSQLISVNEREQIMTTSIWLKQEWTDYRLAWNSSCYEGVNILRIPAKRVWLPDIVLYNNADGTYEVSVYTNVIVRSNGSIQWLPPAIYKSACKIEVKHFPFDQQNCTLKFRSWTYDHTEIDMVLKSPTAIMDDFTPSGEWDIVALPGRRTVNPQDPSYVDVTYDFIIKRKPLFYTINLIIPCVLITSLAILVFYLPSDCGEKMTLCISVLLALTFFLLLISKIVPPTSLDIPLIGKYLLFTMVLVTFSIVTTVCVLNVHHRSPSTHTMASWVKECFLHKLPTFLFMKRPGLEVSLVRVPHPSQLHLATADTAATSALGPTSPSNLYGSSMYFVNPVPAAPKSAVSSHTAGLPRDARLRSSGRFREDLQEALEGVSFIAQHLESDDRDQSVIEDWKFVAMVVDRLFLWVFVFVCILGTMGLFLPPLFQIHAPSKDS
Chain of Neuronal acetylcholine receptor; alpha3/beta2 (P04757 whole entry): as the sequence (P04757 whole entry) above
Chain of Neuronal acetylcholine receptor; alpha3/beta2 (P12390 whole entry): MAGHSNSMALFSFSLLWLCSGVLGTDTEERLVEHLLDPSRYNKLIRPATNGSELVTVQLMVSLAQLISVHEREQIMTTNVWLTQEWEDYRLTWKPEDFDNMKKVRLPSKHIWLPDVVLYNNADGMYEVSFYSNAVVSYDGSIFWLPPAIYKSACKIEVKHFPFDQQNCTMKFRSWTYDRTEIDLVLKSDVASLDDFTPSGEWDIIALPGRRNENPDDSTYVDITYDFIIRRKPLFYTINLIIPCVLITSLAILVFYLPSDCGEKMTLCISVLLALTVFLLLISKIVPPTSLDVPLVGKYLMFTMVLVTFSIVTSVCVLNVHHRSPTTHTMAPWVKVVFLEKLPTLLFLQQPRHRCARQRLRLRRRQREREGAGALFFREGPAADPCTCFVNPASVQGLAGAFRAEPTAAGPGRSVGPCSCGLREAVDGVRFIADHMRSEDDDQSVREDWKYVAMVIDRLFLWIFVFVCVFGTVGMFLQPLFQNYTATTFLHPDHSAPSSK
Chain of Neuronal acetylcholine receptor subunit alpha-2 (P12389 whole entry, one chain of several): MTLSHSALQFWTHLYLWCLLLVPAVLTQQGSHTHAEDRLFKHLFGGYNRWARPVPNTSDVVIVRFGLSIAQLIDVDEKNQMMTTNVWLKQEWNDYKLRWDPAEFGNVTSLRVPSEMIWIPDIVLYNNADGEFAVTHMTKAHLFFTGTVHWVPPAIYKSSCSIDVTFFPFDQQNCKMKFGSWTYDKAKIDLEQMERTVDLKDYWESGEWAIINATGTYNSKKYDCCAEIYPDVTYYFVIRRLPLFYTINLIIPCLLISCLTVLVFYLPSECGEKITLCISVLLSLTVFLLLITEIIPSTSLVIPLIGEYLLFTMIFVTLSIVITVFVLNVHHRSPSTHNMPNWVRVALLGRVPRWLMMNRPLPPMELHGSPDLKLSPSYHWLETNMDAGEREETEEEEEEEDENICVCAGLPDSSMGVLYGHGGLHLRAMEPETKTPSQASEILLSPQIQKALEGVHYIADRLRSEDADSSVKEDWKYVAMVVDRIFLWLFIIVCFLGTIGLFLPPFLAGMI
Chain of Neuronal acetylcholine receptor; alpha2/beta4 (P12389 whole entry): as the sequence (P12389 whole entry, one chain of several) above
Chain of Neuronal acetylcholine receptor; alpha2/beta4 (P12392 whole entry): as the sequence (P12392 whole entry) above
Chain of Neuronal acetylcholine receptor; alpha4/beta4 (P09483 whole entry): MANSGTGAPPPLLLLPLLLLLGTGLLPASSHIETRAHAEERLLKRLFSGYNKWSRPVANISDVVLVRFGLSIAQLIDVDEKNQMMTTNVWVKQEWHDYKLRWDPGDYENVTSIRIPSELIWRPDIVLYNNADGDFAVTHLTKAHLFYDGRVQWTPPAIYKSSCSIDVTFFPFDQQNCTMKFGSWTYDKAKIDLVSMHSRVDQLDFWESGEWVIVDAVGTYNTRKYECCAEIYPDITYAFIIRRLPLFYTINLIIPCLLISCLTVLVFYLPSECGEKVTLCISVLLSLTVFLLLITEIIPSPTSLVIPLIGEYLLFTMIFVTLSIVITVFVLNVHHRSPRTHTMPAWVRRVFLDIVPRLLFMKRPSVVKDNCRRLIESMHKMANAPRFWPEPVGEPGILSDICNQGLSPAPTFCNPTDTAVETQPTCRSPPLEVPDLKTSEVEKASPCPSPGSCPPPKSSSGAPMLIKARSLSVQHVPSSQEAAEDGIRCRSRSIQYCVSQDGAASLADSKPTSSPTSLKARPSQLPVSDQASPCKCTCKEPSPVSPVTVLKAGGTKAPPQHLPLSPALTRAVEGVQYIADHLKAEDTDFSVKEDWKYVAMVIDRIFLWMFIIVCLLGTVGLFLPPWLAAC
Chain of Neuronal acetylcholine receptor; alpha4/beta4 (P12392 whole entry): as the sequence (P12392 whole entry) above
T1 sequence (P09483 whole entry): as the sequence (P09483 whole entry) above
T1 sequence (P12390 whole entry): as the sequence (P12390 whole entry) above

| SMILES | pKi [1] | Ratio Ki (Rattus norvegicus) | pKi [2] | pKi [3] | pKi [4] | pKi [5] | Ratio Ki [6] | pKi [7] | logD ([8]; read-out: logD) | pKi [9] | logD [8] | Ratio [10] | Drug uptake [11] | Drug uptake [12] | Drug uptake [13] |
| --- | --- | --- | --- | --- | --- | --- | --- | --- | --- | --- | --- | --- | --- | --- | --- |
| CN1CCC[C@H]1COc1cnc(Cl)c(OCc2ccc(Cl)nc2)c1 | 9.59 | 5820 | 10.51 | 10.26 | 6.49 | 8.18 | 0.9 | 7.85 | – | – | – | – | – | – | – |
| [11CH3]N1CCC[C@H]1COc1cnc(Cl)c(/C=C/c2ccncc2)c1 | – | – | – | – | – | – | – | – | 1.6 | 10.55 | – | – | – | – | – |
| CN1CCC[C@H]1COc1cnc(Cl)c(/C=C/c2ccncc2)c1 | – | – | – | – | – | – | 2.8 | – | – | – | – | – | – | – | – |
| CN1CCC[C@H]1COc1cnc(Cl)c(OCc2ccnc(F)c2)c1 | 9.48 | 1450 | 10.66 | 10.21 | 7.05 | 8.80 | 1 | 7.96 | – | – | 1.8 | – | – | – | – |
| CN1CCC[C@@H]1COc1cnc(Cl)c(OCc2ccc(Cl)nc2)c1 | 9.07 | 318 | 8.82 | 8.96 | 6.46 | 8.12 | 18 | 7.66 | – | – | 2.2 | – | – | – | – |
| CN1CCC[C@H]1COc1cnc(Cl)c(-c2ccnc(F)c2)c1 | 9.15 | 9520 | 10.30 | 10.21 | 6.23 | 7.80 | 1 | 7.57 | – | – | 1.6 | – | – | – | – |
| [11CH3]N1CCC[C@H]1COc1cnc(Cl)c(OCc2ccc(Cl)nc2)c1 | – | – | – | – | – | – | – | – | – | – | – | 3.8 | 0.7 | 0.7 | 0.7 |
| Fc1ncccc1OC[C@@H]1CCN1 | 8.52 | – | 8.85 | – | 5.43 | – | – | 6.74 | – | – | – | – | – | – | – |
| Fc1cc(COc2cc(OC[C@@H]3CCCN3)cnc2Cl)ccn1 | 9.60 | 331 | 10.46 | 9.89 | 7.37 | 8.96 | 2.1 | 8.09 | – | – | 1.4 | – | – | – | – |
| [11CH3]N1CCC[C@H]1COc1cnc(Cl)c(-c2ccnc(F)c2)c1 | – | – | – | – | – | – | – | – | – | – | – | – | 0.7 | 0.7 | 0.7 |
